From ChEMBL document CHEMBL3352591, “Total synthesis of clavatadine A” (J Nat Prod, 2015)

Biological target: Coagulation factor XI (Homo sapiens, UniProt P03951)
Assay: Inhibition of human coagulation factor 11a pre-incubated for 15 mins before substrate S2366 addition and measured after 2 hrs post substrate addition

Coagulation factor XI, sequence (P03951 19-387 limits assumed): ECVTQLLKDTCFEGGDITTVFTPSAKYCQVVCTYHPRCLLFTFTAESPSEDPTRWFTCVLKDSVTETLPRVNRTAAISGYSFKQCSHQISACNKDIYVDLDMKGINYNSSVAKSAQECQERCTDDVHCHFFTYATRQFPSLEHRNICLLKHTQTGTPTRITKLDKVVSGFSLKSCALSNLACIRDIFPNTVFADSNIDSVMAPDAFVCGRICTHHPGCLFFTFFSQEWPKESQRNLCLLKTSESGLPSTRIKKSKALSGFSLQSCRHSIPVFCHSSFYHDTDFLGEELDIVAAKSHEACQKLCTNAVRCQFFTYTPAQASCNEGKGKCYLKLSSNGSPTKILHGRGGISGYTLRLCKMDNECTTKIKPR
Coagulation factor XI, sequence (P03951 388-625 limits assumed): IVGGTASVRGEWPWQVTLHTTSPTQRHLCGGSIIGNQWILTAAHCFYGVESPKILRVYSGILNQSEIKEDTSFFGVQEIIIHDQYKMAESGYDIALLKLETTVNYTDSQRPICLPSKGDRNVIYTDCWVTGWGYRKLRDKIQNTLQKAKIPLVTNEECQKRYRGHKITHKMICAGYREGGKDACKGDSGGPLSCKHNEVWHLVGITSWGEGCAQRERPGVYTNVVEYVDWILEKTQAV

`N=C(N)NCCCCNC(=O)Oc1c(Br)cc(O)c(CC(=O)O)c1Br` was tested. Which IC50 did it give?
The IC50 was 6.3 µM.
